Assay results taken from patent publication US20230091047A1 (priority 2019, published 2023).
Read-outs that look alike come from different tables or passages of the source.

Tests used:
[1] = in vitro; type: cell-based; conditions: HepG2 or HepG2.117 cells, ATPlite, mean value
Protocol: Cytotoxicity of the compounds was tested using HepG2 or HepG2.117 cells, incubated for 3 or 4 days in the presence of compounds. The viability of the cells was assessed using the PERKIN ELMER ATPlite Luminescence Assay System.”

[2] = system: HBV (HepG2.117 cell line, inducibly HBV producing); experiment: Anti-HBV activity: intracellular HBV DNA by real-time PCR in HepG2.117 cells after 3 days of treatment; type: cell-based, hepatitis B virus; conditions: read-out: EC50 (μM, mean value)
Protocol: The anti HBV activity was measured using the HepG2.117 cell line, a stable, inducibly HBV producing cell line, which replicates HBV in the absence of doxycycline (Tet-off system). The HepG2 cell line is available from ATCCR under number HB-8065. Transfection of the HepG2 cell line can be as described in Sun and Nassal 2006 Journal of Hepatology 45 (2006) 636-645 “Stable HepG2- and Huh7-based human hepatoma cell lines for efficient regulated expression of infectious hepatitis B virus”.
For the antiviral assay, HBV replication was induced, followed by a treatment with serially diluted compound in 96-well plates. After 3 days of treatment, the antiviral activity was determined by quantification of intracellular HBV DNA using real-time PCR and an HBV specific primer set and probe.

[3] = human, 3-days incubation (not marked with *)
[4] = Hepatitis B virus, HepG2.117, 72 h, HepG2.117 cells, intracellular HBV DNA by real-time PCR, 3 days of treatment, mean value
[5] = human, 3-days incubation (unmarked values)
[6] = Hepatitis B virus, HepG2.117, 72 h, HepG2.117 cells, 3 days of treatment, intracellular HBV DNA by real-time PCR, mean value

Compound	CC50 at 3 days [1, 3] [µM]	EC50 [2, 4] [µM]	CC50 at 3 days [1, 5] [µM]	EC50 [2, 6] [µM]	also measured
CNC(=O)c1ccc(-n2c(NC(C)C)nc3c(c2=O)C[C@@H](C)N(C(=O)c2cc(C)c(F)c(C)c2)C3)cc1 [Compound C501]	> 50	0.36			
CC(C)Nc1nc2c(c(=O)n1-c1ccc(C(=O)NC3CC3)cc1)C[C@@H](C)N(C(=O)c1ccc(Cl)c(Cl)c1)C2 [Compound C167, N-cyclopropyl-4-[(6R)-7-(3,4-dichlorobenzoyl)-6-methyl-4-oxo-2-[(propan-2-yl)amino]-5,6,7,8-tetrahydropyrido[3,4-d]pyrimidin-3(4H)-yl]benzamide]			> 50	0.06	
COc1ccccc1-n1c(SC)nc2c(c1=O)CCN(C(=O)c1ccc(Cl)c(Cl)c1)C2 [Compound C4, 7-(3,4-dichlorobenzoyl)-3-(2-methoxyphenyl)-2-(methylsulfanyl)-5,6,7,8-tetrahydropyrido[3,4-d]pyrimidin-4(3H)-one]				1.79	CC50 at 4 days ([1]; human, 4-days incubation (values marked with *)): 36.8 µM
CNC(=O)c1ccc(-n2c(NC(C)C)nc3c(c2=O)C[C@@H](C)N(C(=O)c2cc(F)cc(F)c2)C3)cc1 [Compound C502]	> 50	8.95			
CNC(=O)c1ccc(-n2c(NC(C)C)nc3c(c2=O)C[C@@H](C)N(C(=O)c2ccc(Cl)c(Cl)c2)C3)cn1 [Compound C344]					CC50 at 3 days ([1]; 3-days incubation (unmarked values)): > 50 µM; EC50 ([2]; Hepatitis B virus, HepG2.117, 72 h): 0.15 µM
COc1ccc(CNc2nc3c(c(=O)n2-c2ccccn2)CCN(C(=O)c2ccc(Cl)c(Cl)c2)C3)cc1 [Compound C78, 7-(3,4-dichlorobenzoyl)-2-{[(4-methoxyphenyl)methyl]amino}-3-(pyridin-2-yl)-5,6,7,8-tetrahydropyrido[3,4-d]pyrimidin-4(3H)-one]			41.8	2.11	
CC(C)Nc1nc2c(c(=O)n1-c1ccc(-c3cccc(N4CCOCC4)n3)cc1)CCN(C(=O)c1ccc(Cl)c(Cl)c1)C2 [Compound C173, 7-(3,4-dichlorobenzoyl)-3-{4-[6-(morpholin-4-yl)pyridin-2-yl]phenyl}-2-[(propan-2-yl)amino]-5,6,7,8-tetrahydropyrido[3,4-d]pyrimidin-4(3H)-one]			7.8	0.88	
CC(C)Nc1nc2c(c(=O)n1-c1ccc(C(N)=O)cc1)C[C@@H](C)N(C(=O)c1ccc(Cl)c(Cl)c1)C2 [Compound C195, 4-[(6R)-7-(3,4-dichlorobenzoyl)-6-methyl-4-oxo-2-[(propan-2-yl)amino]-5,6,7,8-tetrahydropyrido[3,4-d]pyrimidin-3(4H)-yl]benzamide]			> 50	0.16	
CNC(=O)c1ccc(-n2c(NC(C)C)nc3c(c2=O)C[C@@H](C)N(C(=O)c2ccc(Br)cc2Cl)C3)cc1 [Compound C565]	> 50	0.68			
COc1ccc(CNc2nc3c(c(=O)n2-c2ccc(S(C)(=O)=O)cc2)C[C@H](C)N(C(=O)c2ccc(Cl)c(Cl)c2)C3)cc1 [Compound C140, (6S)-7-(3,4-dichlorobenzoyl)-3-[4-(methanesulfonyl)phenyl]-2-{[(4-methoxyphenyl)methyl]amino}-6-methyl-5,6,7,8-tetrahydropyrido[3,4-d]pyrimidin-4(3H)-one]			> 50	1.88	
COc1ccc([C@H](C)Nc2nc3c(c(=O)n2-c2ccc(NC(C)=O)cc2)C[C@@H](C)N(C(=O)c2ccc(Cl)c(Cl)c2)C3)cc1 (single isomer, unassigned) [Compound C410b]	> 50				EC50 ([2]; HepG2.117 cells, intracellular HBV DNA by real-time PCR, 3 days of treatment, mean value): 0.11 µM
COc1ccc(CNc2nc3c(c(=O)n2CC(C)C)CCN(C(=O)c2ccc(Cl)c(Cl)c2)C3)cc1 [Compound C67, 7-(3,4-dichlorobenzoyl)-2-{[(4-methoxyphenyl)methyl]amino}-3-(2-methylpropyl)-5,6,7,8-tetrahydropyrido[3,4-d]pyrimidin-4(3H)-one]			> 50	9.51	
COc1ccc(CNc2nc3c(c(=O)n2C(C)C)CCN(C(=O)c2ccc(Cl)c(Cl)c2)C3)cc1 [Compound C72, 7-(3,4-dichlorobenzoyl)-2-{[(4-methoxyphenyl)methyl]amino}-3-(propan-2-yl)-5,6,7,8-tetrahydropyrido[3,4-d]pyrimidin-4(3H)-one]			40	2.77	
CNC(=O)c1cc(-n2c(NC(C)c3ccc(OC(F)(F)F)cc3)nc3c(c2=O)C[C@@H](C)N(C(=O)c2ccc(Cl)c(Cl)c2)C3)[nH]n1 (stereo partly shown) [Compound C531]	26.3	0.21			
CC(C)Nc1nc2c(c(=O)n1-c1ccc(S(C)(=O)=O)cc1)CCN(C(=O)c1nc3ccccc3o1)C2 [Compound C362]			> 50	> 50	
CC(C)Nc1nc2c(c(=O)n1-c1ccc(-c3ccn4ccnc4c3)cc1)C[C@@H](C)N(C(=O)c1ccc(Cl)c(Cl)c1)C2 [Compound C189, (6R)-7-(3,4-dichlorobenzoyl)-3-[4-(imidazo[1,2-a]pyridin-7-yl)phenyl]-6-methyl-2-[(propan-2-yl)amino]-5,6,7,8-tetrahydropyrido[3,4-d]pyrimidin-4(3H)-one]			9.8	0.1	
CC(C)Nc1nc2c(c(=O)n1-c1ccc(C(=O)N3CCOCC3)cc1)C[C@@H](C)N(C(=O)c1ccc(Cl)c(C(F)F)c1)C2 [Compound C682]	> 50	0.12			
CC(C)Nc1nc2c(c(=O)n1-c1ccc(S(C)(=O)=O)cc1)CCN(C(=O)c1cc3ccccc3s1)C2 [Compound C182, 7-(1-benzothiophene-2-carbonyl)-3-[4-(methanesulfonyl)phenyl]-2-[(propan-2-yl)amino]-5,6,7,8-tetrahydropyrido[3,4-d]pyrimidin-4(3H)-one]			> 50	3.14	
CC(C)Nc1nc2c(c(=O)n1-c1ccc(-n3cccn3)cc1Cl)C[C@@H](C)N(C(=O)c1ccc(Cl)c(Cl)c1)C2 [Compound C404]	> 50	0.13			
CC(C)Nc1nc2c(c(=O)n1-c1ccc3c(c1)C(=O)NC3)C[C@@H](C)N(C(=O)c1ccc(Cl)c(Cl)c1)C2 [Compound C229, (6R)-7-(3,4-dichlorobenzoyl)-6-methyl-3-(3-oxo-2,3-dihydro-1H-isoindol-5-yl)-2-[(propan-2-yl)amino]-5,6,7,8-tetrahydropyrido[3,4-d]pyrimidin-4(3H)-one]			> 50	0.11	
CNC(=O)c1ccc(-n2c(N[C@H](C)c3ccc(OC(F)(F)F)cc3)nc3c(c2=O)C[C@@H](C)N(C(=O)c2ccc(Cl)c(Cl)c2)C3)cc1 (single isomer, unassigned) [Compound C440a]	25	5.42			
CNC(=O)c1ccc(-n2c(NCc3ccc(OC)cc3)nc3c(c2=O)CCN(C(=O)c2ccc(Cl)c(Cl)c2)C3)cc1F [Compound C220, 4-[7-(3,4-dichlorobenzoyl)-2-{[(4-methoxyphenyl)methyl]amino}-4-oxo-5,6,7,8-tetrahydropyrido[3,4-d]pyrimidin-3(4H)-yl]-2-fluoro-N-methylbenzamide]			> 50	0.42	
CNC(=O)c1ccc(-n2c(NC(C)C)nc3c(c2=O)C[C@@H](C)N(C(=O)c2cc4c(OC(F)(F)F)cccc4[nH]2)C3)cc1 [Compound C587]	9.2	0.09			
CNC(=O)c1ccc([C@@H](C)Nc2nc3c(c(=O)n2-c2ccc(C(=O)NC)cc2)C[C@@H](C)N(C(=O)c2ccc(Cl)c(Cl)c2)C3)cc1 (single isomer, unassigned) [Compound C530a]	> 50	> 7.4			
CNC(=O)c1ccc(-n2c(N[C@@H](C)c3ccc(C(F)(F)F)cc3)nc3c(c2=O)C[C@@H](C)N(C(=O)c2ccc(Cl)c(Cl)c2)C3)cc1 (single isomer, unassigned) [Compound C413b]	8.3	4.13			
COc1ccc(CNc2nc3c(c(=O)n2CC2CCOCC2)CCN(C(=O)c2ccc(Cl)c(Cl)c2)C3)cc1 [Compound C65, 7-(3,4-dichlorobenzoyl)-2-{[(4-methoxyphenyl)methyl]amino}-3-[(oxan-4-yl)methyl]-5,6,7,8-tetrahydropyrido[3,4-d]pyrimidin-4(3H)-one]			37.8	2.72	
CNC(=O)c1ccc(-n2c(N[C@H](CC3CC3)c3ccccc3)nc3c(c2=O)C[C@@H](C)N(C(=O)c2ccc(Cl)c(Cl)c2)C3)cc1 (single isomer, unassigned) [Compound C437a]	24.6	0.16			
CNC(=O)c1ccc(-n2c(NC(C)C)nc3c(c2=O)C[C@@H](C)N(C(=O)c2ccc(C)cc2)C3)cc1 [Compound C507]	> 50	2.89			
CNC(=O)c1ncc(-n2c(NC(C)C)nc3c(c2=O)C[C@@H](C)N(C(=O)c2ccc(Cl)c(Cl)c2)C3)cn1 [Compound C328, 5-[(6R)-7-(3,4-dichlorobenzoyl)-6-methyl-4-oxo-2-[(propan-2-yl)amino]-5,6,7,8-tetrahydropyrido[3,4-d]pyrimidin-3(4H)-yl]-N-methylpyrimidine-2-carboxamide]			> 50	0.51	
